ChEMBL document CHEMBL5724914, “Linking interpersonal differences in gut microbiota composition and drug biotransformation activity” (2024)

Tests used:
[1] = The drug is tested on Z-011 corresponding to mouse gut metagenome with ENA study accession number: PRJEB37062 and ENA sample accession number: ERS12561811 for biotransformation under anaerobic condition. The drug concentrations were measured over 9 timepoints collected between 0 and 24 hours of incubation by liquid-chromatography-coupled mass spectrometry (LC–MS); details: 2 µM
[2] = The drug is tested on WLS-052 corresponding to human gut metagenome with ENA study accession number: PRJEB37062 and ENA sample accession number: ERS12561747 for biotransformation under anaerobic condition. The drug concentrations were measured over 9 timepoints collected between 0 and 24 hours of incubation by liquid-chromatography-coupled mass spectrometry (LC–MS); details: 2 µM
[3] = The drug is tested on Z-010 corresponding to metagenome with ENA study accession number: PRJEB37062 and ENA sample accession number: ERS12561810 for biotransformation under anaerobic condition. The drug concentrations were measured over 9 timepoints collected between 0 and 24 hours of incubation by liquid-chromatography-coupled mass spectrometry (LC–MS); details: 2 µM
[4] = human gut metagenome, 24 h, 2 µM
[5] = The drug is tested on Z-024 corresponding to pig gut metagenome with ENA study accession number: PRJEB37062 and ENA sample accession number: ERS12561823 for biotransformation under anaerobic condition. The drug concentrations were measured over 9 timepoints collected between 0 and 24 hours of incubation by liquid-chromatography-coupled mass spectrometry (LC–MS); details: 2 µM
[6] = human gut metagenome, 24 h, 2 µM; remark: listed apart in the source
[7] = human gut metagenome, 24 h, 2 µM; remark: listed apart in the source
[8] = The drug is tested on WLS-007 corresponding to human gut metagenome with ENA study accession number: PRJEB37062 and ENA sample accession number: ERS12561742 for biotransformation under anaerobic condition. The drug concentrations were measured over 9 timepoints collected between 0 and 24 hours of incubation by liquid-chromatography-coupled mass spectrometry (LC–MS); details: 2 µM
[9] = The drug is tested on Z-003 corresponding to pig gut metagenome with ENA study accession number: PRJEB37062 and ENA sample accession number: ERS12561803 for biotransformation under anaerobic condition. The drug concentrations were measured over 9 timepoints collected between 0 and 24 hours of incubation by liquid-chromatography-coupled mass spectrometry (LC–MS); details: 2 µM
[10] = human gut metagenome, 24 h, 2 µM; remark: listed apart in the source
[11] = human gut metagenome, 24 h, 2 µM; remark: listed apart in the source
[12] = The drug is tested on WLS-077 corresponding to human gut metagenome with ENA study accession number: PRJEB37062 and ENA sample accession number: ERS12561750 for biotransformation under anaerobic condition. The drug concentrations were measured over 9 timepoints collected between 0 and 24 hours of incubation by liquid-chromatography-coupled mass spectrometry (LC–MS); details: 2 µM
[13] = human gut metagenome, 24 h, 2 µM; remark: listed apart in the source
[14] = The drug is tested on WLS-086 corresponding to human gut metagenome with ENA study accession number: PRJEB37062 and ENA sample accession number: ERS12561752 for biotransformation under anaerobic condition. The drug concentrations were measured over 9 timepoints collected between 0 and 24 hours of incubation by liquid-chromatography-coupled mass spectrometry (LC–MS); details: 2 µM
[15] = human gut metagenome, 24 h, 2 µM; remark: listed apart in the source
[16] = The drug is tested on Z-006 corresponding to mouse gut metagenome with ENA study accession number: PRJEB37062 and ENA sample accession number: ERS12561806 for biotransformation under anaerobic condition. The drug concentrations were measured over 9 timepoints collected between 0 and 24 hours of incubation by liquid-chromatography-coupled mass spectrometry (LC–MS); details: 2 µM
[17] = The drug is tested on Z-008 corresponding to metagenome with ENA study accession number: PRJEB37062 and ENA sample accession number: ERS12561808 for biotransformation under anaerobic condition. The drug concentrations were measured over 9 timepoints collected between 0 and 24 hours of incubation by liquid-chromatography-coupled mass spectrometry (LC–MS); details: 2 µM
[18] = The drug is tested on Z-009 corresponding to pig gut metagenome with ENA study accession number: PRJEB37062 and ENA sample accession number: ERS12561809 for biotransformation under anaerobic condition. The drug concentrations were measured over 9 timepoints collected between 0 and 24 hours of incubation by liquid-chromatography-coupled mass spectrometry (LC–MS); details: 2 µM
[19] = The drug is tested on Z-007 corresponding to rat gut metagenome with ENA study accession number: PRJEB37062 and ENA sample accession number: ERS12561807 for biotransformation under anaerobic condition. The drug concentrations were measured over 9 timepoints collected between 0 and 24 hours of incubation by liquid-chromatography-coupled mass spectrometry (LC–MS); details: 2 µM
[20] = human gut metagenome, 24 h, 2 µM; remark: listed apart in the source
Further: call rule not given here.

SMILES	Bacterial Biotransformation [1]	Bacterial Biotransformation [2]	Bacterial Biotransformation [3]	Bacterial Biotransformation [4]	Bacterial Biotransformation [5]	Bacterial Biotransformation [6]	Bacterial Biotransformation [7]	Bacterial Biotransformation [8]	Bacterial Biotransformation [9]	Bacterial Biotransformation [10]	Bacterial Biotransformation [11]	Bacterial Biotransformation [12]	Bacterial Biotransformation [13]	Bacterial Biotransformation [14]	Bacterial Biotransformation [15]	Bacterial Biotransformation [16]	Bacterial Biotransformation [17]	Bacterial Biotransformation [18]	Bacterial Biotransformation [19]	Bacterial Biotransformation [20]
C[C@]12CCC(=O)C=C1[C@@H]1C[C@@H]1[C@H]1[C@@H]3[C@@H]4C[C@@H]4[C@@]4(CCC(=O)O4)[C@@]3(C)CC[C@@H]12 [DROSPIRENONE]	Compound NOT metabolized	Compound metabolized	Compound metabolized	Compound metabolized	Compound NOT metabolized	Compound metabolized	Compound metabolized	Compound metabolized	Compound metabolized	Compound metabolized	Compound metabolized	Compound metabolized	Compound NOT metabolized	Compound metabolized	Compound metabolized	Compound metabolized	Compound metabolized	Compound metabolized	Compound NOT metabolized	Compound metabolized
O=C(O)c1cc(/N=N/c2ccc(S(=O)(=O)Nc3ccccn3)cc2)ccc1O [SULFASALAZINE]	Compound metabolized	Compound NOT metabolized	Compound metabolized	Compound metabolized	Compound metabolized	Compound metabolized	Compound metabolized	Compound metabolized	Compound metabolized	Compound metabolized	Compound metabolized	Compound metabolized	Compound metabolized	Compound metabolized	Compound metabolized	Compound metabolized	Compound metabolized	Compound metabolized	Compound metabolized	Compound metabolized
CC(C)NCC(O)COc1ccc(CC(N)=O)cc1 (stereo not given) [ATENOLOL]	Compound NOT metabolized	Compound NOT metabolized	Compound NOT metabolized	Compound NOT metabolized	Compound NOT metabolized	Compound metabolized	Compound metabolized	Compound NOT metabolized	Compound NOT metabolized	Compound NOT metabolized	Compound NOT metabolized	Compound metabolized	Compound NOT metabolized	Compound metabolized	Compound NOT metabolized	Compound NOT metabolized	Compound NOT metabolized	Compound NOT metabolized	Compound NOT metabolized	Compound NOT metabolized
C[C@@H](c1ncncc1F)[C@](O)(Cn1cncn1)c1ccc(F)cc1F [VORICONAZOLE]	Compound NOT metabolized	Compound metabolized	Compound metabolized	Compound metabolized	Compound metabolized	Compound metabolized	Compound metabolized	Compound metabolized	Compound metabolized	Compound metabolized	Compound metabolized	Compound metabolized	Compound metabolized	Compound metabolized	Compound metabolized	Compound NOT metabolized	Compound NOT metabolized	Compound metabolized	Compound NOT metabolized	Compound metabolized
CC(=O)OCC(=O)[C@@]1(OC(C)=O)[C@@H](C)C[C@H]2[C@@H]3C[C@H](F)C4=CC(=O)C=C[C@]4(C)[C@@]3(F)[C@@H](O)C[C@@]21C [DIFLORASONE DIACETATE]	Compound metabolized	Compound metabolized	Compound metabolized	Compound metabolized	Compound NOT metabolized	Compound metabolized	Compound metabolized	Compound metabolized	Compound NOT metabolized	Compound metabolized	Compound metabolized	Compound metabolized	Compound metabolized	Compound metabolized	Compound metabolized	Compound metabolized	Compound metabolized	Compound metabolized	Compound NOT metabolized	Compound metabolized
